Like-named read-outs stand apart in the source and are kept apart here.
Assays:
[1] = test system: HT-29 human colon cancer cells; assay: HT-29 Model, third assay (C): tumor volume, 5-FU days 14-17 with or without celecoxib or valdecoxib in the diet (Table 21); format: in vivo, mice; settings: for reduction in tumor volume: mice with HT-29 tumors, 5-FU i.p. 50 mg/kg days 14 through 17, celecoxib 1600 ppm, valdecoxib 160 ppm in the diet
Protocol: (§1) Mice were injected subcutaneously in the left paw (1×10^6 tumor cells suspended in 30% Matrigel) and tumor volume was evaluated using a phlethysmometer twice a week for 30-60 days. Implantation of human colon cancer cells (HT-29) into nude mice produces tumors that will reach 0.6-2 ml between 30-50 days. […] The data are expressed as the mean+/−SEM. Student's and Mann-Whitney tests were used to assess differences between means using the InStat software package.
(§2) The efficacy of both agents were determined by measuring tumor volume.

[2] = test system: HT-29 human colon cancer cells; settings: mice with HT-29 tumors; 5-FU i.p. 50 mg/kg on days 12, 13, 14, 15; celecoxib in the diet
Protocol: as §1, §2

[3] = test system: HT-29 human colon cancer cells
Protocol: as §1, §2

Lewis Lung tumors = assay: Lewis Lung Model: tumor volume and lung metastasis in mice; format: in vivo
Protocol: Mice were injected subcutaneously in the left paw (1×10^6 tumor cells suspended in 30% Matrigel) and tumor volume was evaluated using a phlethysmometer twice a week for 30-60 days. […] The data are expressed as the mean+/−SEM. Student's and Mann-Whitney tests were used to assess differences between means using the InStat software package. […] Analysis of lung metastasis was done in all the animals by counting metastasis in a stereomicroscope and by histochemical analysis of consecutive lung sections.

[4] = test system: HT-29 human colon cancer cells; assay: HT-29 Model, fourth assay (D): celecoxib 10, 40 or 160 ppm in the diet from day 10 (Table 22); format: in vivo, mice; settings: celecoxib 10, 40 or 160 ppm in the diet beginning at day 10
Protocol: as §1

SMILES: O=c1[nH]cc(F)c(=O)[nH]1 [5-FU, 5-fluorouracil]
- reduction in tumor volume [1]: 35%
- reduction of tumor volume [2]: 61%

SMILES: NS(=O)(=O)c1ccc(-n2nc(C(F)(F)F)cc2-c2ccc(Cl)cc2)cc1 [SC-58236]
- formation of lung metastasis ([3]; mice with HT-29 tumors): completely inhibited
- reduction of tumor volume ([3]; mice with HT-29 tumors, COX-2 inhibitor in the diet): 89%

SMILES: Cc1ccc(-c2cc(C(F)(F)F)nn2-c2ccc(S(N)(=O)=O)cc2)cc1 [celecoxib, 4-[5-(4-methylphenyl)-3-(trifluoromethyl)-1H-pyrazol-1-yl]-benzenesulfonamide]
- Tumor Volume ([1]; celecoxib 160 ppm in diet, day 11): 0.05 mL
- Tumor Volume ([1]; celecoxib 160 ppm in diet, day 14): 0.13 mL
- Tumor Volume ([1]; celecoxib 160 ppm in diet, day 18): 0.17 mL
- Tumor Volume ([1]; celecoxib 160 ppm in diet, day 21): 0.2 mL
- Tumor Volume ([1]; celecoxib 160 ppm in diet, day 28): 0.25 mL
- Tumor Volume ([1]; celecoxib 160 ppm in diet, day 35): 0.35 mL
- Tumor Volume ([1]; celecoxib 160 ppm in diet, day 42): 0.52 mL
- reduction in tumor volume [1]: 52%
- size of the metastasic lesions in the lung, histopathological analysis (Lewis Lung tumors; celecoxib in the diet): dose-dependently reduced
- reduction of surface metastasis (lung) (Lewis Lung tumors; celecoxib in the diet 480-3200 ppm): more than 50%
- effect on lung metastasis (Lewis Lung tumors; celecoxib in the diet, lower dose of 160 ppm): did not affect
- effect on HT-29 tumors, dose dependence [4]: approximate dose dependent effect
- reduction of tumor volume [2]: 68%

SMILES: COc1ccc2c(c1)c(CC(=O)O)c(C)n2C(=O)c1ccc(Cl)cc1 [indomethacin]
- formation of lung metastasis ([3]; mice with HT-29 tumors): ineffective
- inhibition of tumor formation ([3]; mouse, in vivo, 2 mg/kg/day): 77%

SMILES: Cc1onc(-c2ccccc2)c1-c1ccc(S(N)(=O)=O)cc1 [valdecoxib, 4-(5-methyl-3-phenylisoxazol-4-yl)benzenesulfonamide]
- reduction in tumor volume [1]: 69%
- Tumor Volume ([1]; valdecoxib 160 ppm in diet, day 11): 0.06 mL
- Tumor Volume ([1]; valdecoxib 160 ppm in diet, day 14): 0.13 mL
- Tumor Volume ([1]; valdecoxib 160 ppm in diet, day 18): 0.17 mL
- Tumor Volume ([1]; valdecoxib 160 ppm in diet, day 21): 0.2 mL
- Tumor Volume ([1]; valdecoxib 160 ppm in diet, day 28): 0.25 mL
- Tumor Volume ([1]; valdecoxib 160 ppm in diet, day 35): 0.32 mL
- Tumor Volume ([1]; valdecoxib 160 ppm in diet, day 42): 0.36 mL

Source: patent US20050037090A1, “Combination therapy including a cyclooxygenase-2 inhibitor and an antineoplastic agent” (priority 1998, published 2005)
